Literature values as cited in patent US20260256742A1, “ANDROGEN RECEPTOR ANTAGONISTS FOR THE TREATMENT OF PATIENTS WITH BIOCHEMICAL RECURRENCE OF HORMONE SENSITIVE PROSTATE CANCER” (BAYER CONSUMER CARE AG, priority 2023, published 2026).

Assays:
nmCRPC = conditions: in combination with ADT, patients with nmCRPC; cited from earlier work
T878A AR mutant = T878A AR mutant (Homo sapiens, UniProt P10275, T878A); conditions: cited from earlier work
[1] = in vivo; cited from earlier work
[2] = single oral administration; cited from earlier work

Chain of T878A AR mutant (P10275 whole entry T878A): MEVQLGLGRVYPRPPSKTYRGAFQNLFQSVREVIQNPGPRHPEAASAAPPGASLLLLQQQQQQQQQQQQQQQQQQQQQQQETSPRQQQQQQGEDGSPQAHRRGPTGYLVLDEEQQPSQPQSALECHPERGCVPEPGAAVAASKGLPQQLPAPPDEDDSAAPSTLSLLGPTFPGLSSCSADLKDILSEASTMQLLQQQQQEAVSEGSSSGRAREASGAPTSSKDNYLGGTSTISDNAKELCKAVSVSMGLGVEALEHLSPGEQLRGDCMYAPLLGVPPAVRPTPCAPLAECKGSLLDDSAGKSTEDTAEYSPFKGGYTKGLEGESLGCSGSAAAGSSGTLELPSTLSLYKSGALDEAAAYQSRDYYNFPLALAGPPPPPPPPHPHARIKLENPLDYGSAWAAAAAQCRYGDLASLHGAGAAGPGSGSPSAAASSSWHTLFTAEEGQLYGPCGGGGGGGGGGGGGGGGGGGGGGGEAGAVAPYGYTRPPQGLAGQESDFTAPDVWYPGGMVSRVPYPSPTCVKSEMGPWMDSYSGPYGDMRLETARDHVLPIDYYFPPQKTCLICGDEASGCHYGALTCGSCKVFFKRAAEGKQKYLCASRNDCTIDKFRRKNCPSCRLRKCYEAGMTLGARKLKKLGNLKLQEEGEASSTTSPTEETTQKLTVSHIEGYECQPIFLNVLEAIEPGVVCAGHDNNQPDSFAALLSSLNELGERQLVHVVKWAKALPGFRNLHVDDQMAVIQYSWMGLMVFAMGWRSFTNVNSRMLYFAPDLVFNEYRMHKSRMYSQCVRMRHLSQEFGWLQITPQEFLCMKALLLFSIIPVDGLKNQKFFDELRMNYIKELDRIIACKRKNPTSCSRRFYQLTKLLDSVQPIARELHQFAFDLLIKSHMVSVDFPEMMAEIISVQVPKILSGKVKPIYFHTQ

CNC(=O)c1ccc(N2C(=S)N(c3ccc(C#N)c(C(F)(F)F)c3)C(=O)C2(C)C)cc1F [enzalutamide]
metastatic free survival (MFS) (nmCRPC): significantly increased
overall survival (OS) (nmCRPC): significantly increased

CC(C)(O)C(=O)Nc1ccc([N+](=O)[O-])c(C(F)(F)F)c1 [hydroxyflutamide]
action in T878A AR mutant (T878A AR mutant): AR agonists

CC(Cn1ccc(-c2ccc(C#N)c(Cl)c2)n1)NC(=O)c1cc(C(C)O)[nH]n1 (single isomer, unassigned) [(S,R) diastereoisomer]
elimination compared with the other diastereoisomer [1]: faster elimination

CC(O)c1cc(C(=O)N[C@@H](C)Cn2ccc(-c3ccc(C#N)c(Cl)c3)n2)[nH]n1 (some centres unmarked) [[^14C]-darolutamide]
exposure in prostate tissue [2]: higher
tissue distribution [2]: wide and homogenous distribution in all tissues except the brain

CNC(=O)c1ccc(N2C(=S)N(c3cnc(C#N)c(C(F)(F)F)c3)C(=O)C23CCC3)cc1F [apalutamide]
metastatic free survival (MFS) (nmCRPC): significantly increased
overall survival (OS) (nmCRPC): significantly increased
